Results: patent publication US8283349B2, “Fungicide N-(3-phenylpropyl) carboxamide derivatives” (Bayer Cropscience AG, priority 2007, dated 2012)

Tested on: Mycosphaerella graminicola
Test: Cell test on Mycosphaerella graminicola
Type: cell-based
Conditions: under similar conditions (6 ppm, liquid medium, OD 620 nm); comparison compounds of the prior art
Protocol: The growth of Mycosphaerella graminicola is performed in a bactopeptone based liquid medium at 20° C. under shaking (120 rpm) during 72 hours. The bactopeptone based medium is prepared by mixing 14.6 grams of D-glucose, 1.4 grams of Yeast extract and 7.1 g of bacteriological peptone (OXOID ref. LP0037) in 1 liter of demineralized water. The medium is sterilized by autoclave 15 minutes at 121° C. After 72 hours, pre-culture of Mycosphaerella graminicola is recovered and the optic density (OD) at 620 nm is adjusted with the bactopeptone based medium at 0.5. The compounds are dissolved in DMSO and added to sterile liquid bactopeptone medium at a concentration of 6 ppm. The medium is inoculated with the pre-culture of Mycosphaerella graminicola by a dilution of 10 times of the pre-culture. The efficacy of the compounds is assessed by OD measurement at 620 nm after 4 days at 20° C. in comparison with a control.

| SMILES | activity |
| --- | --- |
| COc1ccnc(C(=O)NCCC(c2ccccc2)c2ccccc2)c1O [compound 16, N-(3,3-diphenylpropyl)-3-hydroxy-4-methoxypyridine-2-carboxamide] | did not show any activity |
| COc1ccc(CCCNC(=O)c2c(-c3ccc(Cl)cc3)noc2C)cc1OC [compound 60, 3-(4-chlorophenyl)-N-[3-(3,4-dimethoxyphenyl)propyl]-5-methylisoxazole-4-carboxamide] | did not show any activity |
